The text below walks through data of US7960549B2, “Solid forms of a chemokine receptor antagonist and methods of use thereof” (priority 2004, dated 2011).

Counter-ions that a name gives are not always drawn.

What all share (format): physicochemical
A short description of series [1]: Controlled temperature (isothermal) X-ray powder diffraction: thermal stability of the crystalline form. The settings on record: dry nitrogen; for form conversion as the temperature is raised (isothermal XRPD): ambient to 210° C.; for loss of stability (lines unique to the form disappear), isothermal XRPD: sample containing Forms E, F, and G, steps of 10° C. As to the method: X-ray powder diffraction (XRPD) is performed on various samples of the Citrate Salt using one of three instruments. XRPD measurements with Instrument 1 utilize a Siemens-Bruker D5000 Matic powder diffractometer with a Bragg-Brentano (vertical θ-2θ configuration) parafocusing geometry. X-rays are produced from a sealed cobalt anode running at 40 kV and 30 mA. Two lines are typically emitted: CoKα1 (λ=1.7890 Å) and CoKα2 (λ=1.7929 Å). An iron β-filter limits the CoKβ (λ=1.6208 Å) radiation to about 1% of the diffracted beam at the detector. The primary beam passes through a parallel plate collimator (0.2 mm Soller slits), then through a divergence slit (0.2 mm). Diffracted X-rays are detected with a Braun 50 M multichannel linear detector having a 10°-wide detection window in angle 2θ. Scans are performed from 1.5° to 50.0° in 2θ, the scan time being 10 to 40 seconds per degree in 2θ. The error in the 2θ locations are typically within ±0.10 degrees.
In Instrument 3, XRPD measurements are performed at different temperatures to elucidate the evolution of crystal structure with temperature. Tests are carried out with a Siemens-Bruker D5000 diffractometer equipped with the Bragg Brentano parafocusing (θ-θ) geometry and an Anton-Paar TTK temperature chamber. Measurements utilize dry nitrogen or nitrogen streams having a particular humidity. The instrument specifications are substantially similar to the Siemens-Bruker D5000 Matic instrument described above (Instrument 1). Temperature is allowed to rise at a rate of 0.05° C./sec. Scans are recorded under the following conditions: a 1.5 to 50.0 degree scan in angle 2θ, 10 to 20 seconds counting time per degree in 2θ. Data are acquired in isotherm mode when the requested temperature is reached.

Series [2] is described as follows: Differential scanning calorimetry (DSC). As to the method: Differential scanning calorimetry (DSC) analyses are performed using a T.A Instruments Q1000 thermal analyser. Analyses are carried out using nitrogen purge gas flowing at an average rate of 50 ml/min. A mechanical compressor cools the system, and equilibrates the instruments being used at ambient temperature between analyses. […] Energy calibration is performed with a certified indium calibrator (melting enthalpy of 28.45 J/g), applying a heating rate of 5° C./min. The temperatures identified from DSC scans of a particular sample are accurate to within ±3° C. […] Modulated temperature differential scanning calorimetry (MTDSC) is also used since deconvolution of the total heat flow into reversing and non-reversing heat flows allows the transitions to be easily identified. The samples were submitted to the same experimental temperature program: after the equilibration of the sample at −5° C., the samples were heated through a modulated program from −5° C. to 210° C. at a rate of 1° C./min. […] Experiments are performed using crimped aluminium sample pans or open pans in some cases. The quantity of product analysed is typically between 2 and 13 mg.

A short description of series [3]: Water sorption/desorption cycling (dynamic vapor sorption, DVS) at 25° C., with XRPD before and after. The settings on record: for XRPD before and after water sorption/desorption cycling: four consecutive cycles, start at 40%, cycled between 100% and 0% relative humidity, mixed samples; for global / net weight loss after all 4 water sorption/desorption cycles: four cycles between 100% and 0% relative humidity. How it is done:
Water sorption measurements are performed on a DVS-1 automated gravimetric vapor sorption analyser (Surface Measurement Systems Ltd., London, UK). The DVS-1 measures the uptake and loss of vapor gravimetrically using a Cahn D200 recording ultra-microbalance with a mass resolution of ±0.1 μg. The relative humidity around the sample is controlled by mixing saturated and dry carrier gas streams using mass flow controllers. The temperature is maintained within ±0.1° C. by enclosing the entire system in a temperature-controlled incubator. A sample size between 15 and 20 mg is used. In general, the error in % (w/w) identified in a tested sample is ±0.1% (w/w).
Two protocols are utilized to operate the DVS. In one protocol, a sample is dried at 0% relative humidity (RH) to remove any surface water present and establish a dry, baseline mass. Next, the sample is exposed to the following relative humidity profile: 0%, 10%, 20%, 30%, 40%, 50%, 60%, 70%, 80%, 90%, 80%, 70%, 60%, 50%, 40%, 30%, 20%, 10%, 0%. In some instances, this profile is repeated, yielding 4 sets of data going up and down in RH. In another protocol, the sample is first equilibrated at 40% RH, then it was exposed to the following relative humidity profile: 40%, 50%, 60%, 70%, 80%, 90%, 100%, 90%, 80%, 70%, 60%, 50% 40% 30%, 20% 10%, 0%, 10%, 20%, 30%, 40%. […] If equilibrium state is not reached, the change in relative humidity took place automatically after 360 or 600 minutes. From the complete moisture sorption and desorption profile, an isotherm is calculated using the DVS Advanced Analysis Suite v3.6. All experiments were performed at 25° C.

A short description of series [4]: Thermal gravimetric analysis (TGA). As to the method:
Measurements utilizing thermal gravimetric analysis (TGA) are carried out on a T.A. instruments TGAQ500 analyzer. Mass calibration is performed with 10 and 100 mg certified masses. Temperature calibration is performed with Alumel® and nickel standards (Curie points of respectively 154° C. and 354° C.). Samples are exposed to a constant nitrogen stream of 60 ml/min, and temperature ranges from room temperature to 350° C. at a 5° C./min rate. The quantity of product tested is between 2 and 13 mg. The sample is deposited in an open aluminum sample pan, which is itself placed in a platinum pan. The temperatures identified from TGA scans of a particular sample are accurate to within ±3° C. Simultaneous TGA and DSC measurements are carried out using a […] thermal analysis system produced by the […] corporation. A liquid nitrogen cooling system makes it possible to work at temperatures below 20° C. The emitted gases, upon sample heating, are carried by a transfer capillary tube to a Pfeiffer mass spectrometer, the capillary tube heated to 150° C. The mass spectrometer can analyze molecular fragments at <<m/e>> ratios between 1 and 200 uma. A sample with a mass between 1 and 27 mg is contained in an open concave aluminum sample pan (75 μL capacity) exposed to a nitrogen stream. The sample is heated at a rate of 1 or 5° C./min.

The mark [5] stands for this setting: mixture of Forms A and D, 0.3° C./min, Form D: conversion to Form A, Form A: melting/decomposition.
The mark [6] stands for this setting: transition 3411 (first endothermic transition, conversion of Form E to Form B), heating rate 5° C./min.
The mark [7] stands for this setting: transition 3412 (second endothermic transition, conversion of Form F to Form B), heating rate 5° C./min.
The mark [8] stands for this setting: transition 3413 (third endothermic transition, conversion of Form G to Form B), heating rate 5° C./min.
[9] abbreviates: transition 3414 (fourth endothermic transition, decomposition/melting of crystalline Form B), heating rate 5° C./min.
[10] abbreviates: 25° C., listed as Forms E, F, and G.
The mark [11] stands for this setting: weight transition 2811 (conversion away from Form E), 5° C./min.
Where [12] appears, read: weight transition 2812 (conversion away from Form F), 5° C./min.
[13] abbreviates: weight transition 2813 (conversion away from Form G), 5° C./min.
Setting [14] is: weight transition 2814 (decomposition/melting of crystalline Form B, loss of citrate), 5° C./min.
The mark [15] stands for this setting: heating rate 5° C./min, A, B, H: melting/decomposition, E: loss of water and conversion to Form H, ±3° C.
Where [16] appears, read: heating rate 5° C./min, sample of the single form (Form H formed from Form E sample), ±3° C.
Setting [17] is: mixture of Forms A and D, 0.3° C./min.
Setting [18] is: sample containing Forms A and D, 5° C./min.

`CC(C)(O)c1ccc2c(c1)/C(=C/CCN1CC[C@](O)(c3ccc(Cl)cc3)C(C)(C)C1)c1cccnc1CO2` [Form D, citrate salt of (S)-4-(4-Chloro-phenyl)-1-{3-[7-(1-hydroxy-1-methyl-ethyl)-11H-10-oxa-1-aza-dibenzo[a,d]cyclohepten-5-ylidene]-propyl}-3,3-dimethyl-piperidin-4-ol]: the “transition to Form A observed by temperature controlled XRPD” value in series [1] (sample containing Forms A and D) was “below 60 °C”. Also, in series [2] (setting [5]), the “DSC endothermic transition, Tmax” value was determined as 52 °C and the “DSC endothermic transition, interpolated beginning temperature” value was “about 47 °C”. The “DSC endothermic transition, integrated enthalpy” value in series [2] (mixture of Forms A and D, 0.3° C./min, conversion of Form D to Form A) is 3.7 J/g. Further, in series [3] (25° C.), the “XRPD before and after water sorption/desorption cycling” value is recorded as “disappeared after the cycling; only the signature of Form A remains”.

With `CC(C)(O)c1ccc2c(c1)/C(=C/CCN1CC[C@](O)(c3ccc(Cl)cc3)C(C)(C)C1)c1cccnc1CO2` [Form E, F, and G], the results for the “Integrated Enthalpy Change” value in series [2] (setting [6]), in series [2] (setting [7]) and in series [2] (setting [8]) were 20.3 J/g, 5.8 J/g and 2.4 J/g, respectively. Moreover, the “Interpolated Starting T” value in series [2] (setting [6]) was determined as 78 °C; in series [2] (setting [7]) it was 119 °C; in series [2] (setting [8]), 131 °C; in series [2] (setting [9]), 165 °C. The Tmax in series [2] (setting [6]) was found to be 99 °C; in series [2] (setting [7]) it was 124 °C; in series [2] (setting [8]), 136 °C; in series [2] (setting [9]), 181 °C. Further, the “global / net weight loss after all 4 water sorption/desorption cycles” value in series [3] (setting [10]) is recorded as “about 7.5 % (w/w)”. For the same compound, the “weight change / water uptake between 10% and 90% relative humidity” value in series [3] (setting [10]) is 2.10 % (w/w). For the same compound, the “weight gain / water uptake as relative humidity is increased from 0% to 10%” value in series [3] (setting [10]) is recorded as 3.76 % (w/w). The “Interpolated Starting T (° C.)” value in series [4] (setting [11]) turned out to be 42 °C; in series [4] (setting [12]) it was 110 °C; in series [4] (setting [13]), 131 °C; in series [4] (setting [14]), 166 °C. Besides, the “T (° C.) corresponding to Max. Rate of Weight Change” value in series [4] (setting [11]) worked out at 50 °C; in series [4] (setting [12]) it was 123 °C; in series [4] (setting [13]), 138 °C; in series [4] (setting [14]), 187 °C. Moreover, the “Weight Loss % (w/w)” value in series [4] (setting [11]) is listed as 1.9 % (w/w); in series [4] (setting [12]), 3.6 % (w/w); in series [4] (setting [13]), 1.6 % (w/w); in series [4] (setting [14]) it was 22.6 % (w/w).

Take `CC(C)(O)c1ccc2c(c1)/C(=C/CCN1CC[C@](O)(c3ccc(Cl)cc3)C(C)(C)C1)c1cccnc1CO2` [Form F, citrate salt of (S)-4-(4-Chloro-phenyl)-1-{3-[7-(1-hydroxy-1-methyl-ethyl)-11H-10-oxa-1-aza-dibenzo[a,d]cyclohepten-5-ylidene]-propyl}-3,3-dimethyl-piperidin-4-ol]: in series [1], the “form conversion as the temperature is raised (isothermal XRPD)” value is “converts to Form B” and the “loss of stability (lines unique to the form disappear), isothermal XRPD” value was “greater than 110 °C”. The “XRPD before and after water sorption/desorption cycling” value in series [3] (25° C.) was “disappears”.

For `CC(C)(O)c1ccc2c(c1)/C(=C/CCN1CC[C@](O)(c3ccc(Cl)cc3)C(C)(C)C1)c1cccnc1CO2` [Form G, citrate salt of (S)-4-(4-Chloro-phenyl)-1-{3-[7-(1-hydroxy-1-methyl-ethyl)-11H-10-oxa-1-aza-dibenzo[a,d]cyclohepten-5-ylidene]-propyl}-3,3-dimethyl-piperidin-4-ol], in series [1], the “form conversion as the temperature is raised (isothermal XRPD)” value is “converts to Form B” and the “loss of stability (lines unique to the form disappear), isothermal XRPD” value is ≥ 130 °C. Further, the “XRPD before and after water sorption/desorption cycling” value in series [3] (25° C.) is on record as “have dissipated”.

As to `CC(C)(O)c1ccc2c(c1)/C(=C/CCN1CC[C@](O)(c3ccc(Cl)cc3)C(C)(C)C1)c1cccnc1CO2` [Form H, citrate salt of (S)-4-(4-Chloro-phenyl)-1-{3-[7-(1-hydroxy-1-methyl-ethyl)-11H-10-oxa-1-aza-dibenzo[a,d]cyclohepten-5-ylidene]-propyl}-3,3-dimethyl-piperidin-4-ol], in series [2] (setting [15]), the “DSC endothermic transition, Tmax” value turned out to be 141 °C and the “DSC endothermic transition, interpolated beginning temperature” value was found to be 131 °C. The “behaviour when exposed to 10% relative humidity or higher” value in series [3] (ambient temperatures) was “reversibly transforms into form E”. Moreover, the “TGA weight loss of the transition” value in series [4] (heating rate 5° C./min, sample of the single form (Form H formed from Form E sample)) is reported as 20.10 % (w/w). For the same compound, in series [4] (setting [16]), the “TGA weight loss transition, interpolated beginning temperature” value is 127 °C and the “TGA weight loss transition, temperature of maximum rate of weight loss” value is 142 °C.

`CC(C)(O)c1ccc2c(c1)/C(=C/CCN1CC[C@](O)(c3ccc(Cl)cc3)C(C)(C)C1)c1cccnc1CO2` [Forms A and D]: in series [2] (setting [17]), the “DSC endothermic transition 1912 (release of THF), Tmax” value came out at 77 °C; the “DSC endothermic transition 1912 (release of THF), beginning temperature” value was “about 60 °C”; the “DSC endothermic transition 1912 (release of THF), enthalpy” value was determined as 18.1 J/g. Besides, the “global / net weight loss after all 4 water sorption/desorption cycles” value in series [3] (25° C.) is given as “about 14.3 % (w/w)”. In series [4] (setting [18]), the “TGA second weight loss transition 1812, interpolated beginning temperature” value was determined as 164 °C and the “TGA second weight loss transition 1812, temperature of maximum weight loss rate” value amounted to 180 °C.
